# Literature values, collected in patent US4197292A, “Novel amylase inhibitors” (Taisho Pharmaceutical Co., priority 1978, dated 1980).
# Test system: β-glucosidase
# Settings: prior art inhibitor
smiles,measurement,value
OC[C@H]1NC(O)[C@H](O)[C@@H](O)[C@@H]1O (stereo partly shown) [Nojirimycin],inhibitory activity to β-glucosidase (in words),has inhibitory activity
